Experimental data published in US11814367B2, “Inhibitors of glycogen synthase 1 (GYS1) and methods of use thereof” (Maze Therapeutics, Inc., priority 2021, dated 2023).

Experiments:
[1] = molecular target: hGYS1 enzyme (recombinant hGYS1/GN1 protein) (Homo sapiens (Human), UniProt P13807); assay: GYS1 coupled enzyme assay (PK/LDH); format: biochemical; settings: hGYS1/GN1 50 nM, UDP-Glucose 0.8 mM, G6P 1 mM; geometric mean of at least 2 runs
[2] = molecular target: hGYS2 enzyme (recombinant hGYS2/GN1 protein) (Homo sapiens (Human), UniProt P54840); assay: GYS2 coupled enzyme assay (PK/LDH); format: biochemical; settings: geometric mean of at least 2 assay runs on separate days, read-out: Avg_IC50
Chain of hGYS2 enzyme (recombinant hGYS2/GN1 protein) (P54840 whole entry): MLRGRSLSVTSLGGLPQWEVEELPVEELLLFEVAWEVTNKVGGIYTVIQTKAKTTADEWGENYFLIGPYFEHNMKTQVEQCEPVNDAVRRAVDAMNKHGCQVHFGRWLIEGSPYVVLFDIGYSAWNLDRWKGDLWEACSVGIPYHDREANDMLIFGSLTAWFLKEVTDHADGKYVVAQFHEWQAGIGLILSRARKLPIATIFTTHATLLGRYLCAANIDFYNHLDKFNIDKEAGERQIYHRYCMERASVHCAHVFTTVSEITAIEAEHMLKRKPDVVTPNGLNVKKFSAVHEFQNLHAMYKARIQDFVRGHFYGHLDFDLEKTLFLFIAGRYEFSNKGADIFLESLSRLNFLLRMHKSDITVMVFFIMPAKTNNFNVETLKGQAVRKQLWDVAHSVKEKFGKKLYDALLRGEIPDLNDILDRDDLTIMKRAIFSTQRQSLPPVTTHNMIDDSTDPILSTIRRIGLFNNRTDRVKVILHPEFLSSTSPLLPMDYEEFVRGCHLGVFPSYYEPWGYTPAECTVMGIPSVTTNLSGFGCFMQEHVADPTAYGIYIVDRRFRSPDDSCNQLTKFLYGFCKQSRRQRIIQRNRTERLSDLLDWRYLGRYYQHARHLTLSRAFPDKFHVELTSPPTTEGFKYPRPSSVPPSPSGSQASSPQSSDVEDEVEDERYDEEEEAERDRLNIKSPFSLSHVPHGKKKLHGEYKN
Chain of hGYS2 enzyme (recombinant hGYS2/GN1 protein) (P46976 whole entry partner): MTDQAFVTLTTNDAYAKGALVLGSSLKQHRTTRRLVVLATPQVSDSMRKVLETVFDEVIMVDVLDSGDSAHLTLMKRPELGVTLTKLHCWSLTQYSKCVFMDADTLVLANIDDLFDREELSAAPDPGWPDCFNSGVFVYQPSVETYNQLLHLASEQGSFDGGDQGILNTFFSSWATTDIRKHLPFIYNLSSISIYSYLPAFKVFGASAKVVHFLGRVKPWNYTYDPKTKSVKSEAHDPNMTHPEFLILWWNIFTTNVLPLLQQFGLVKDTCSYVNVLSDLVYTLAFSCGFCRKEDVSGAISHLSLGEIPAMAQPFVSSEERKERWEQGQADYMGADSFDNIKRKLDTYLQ
Text: The GYS2 coupled enzyme assay is a kinetic biochemical assay that indirectly quantifies the rate of glycogen synthesis by coupling the conversion of GYS2 substrate UDP-glucose into UDP with downstream enzymatic reactions. UDP is released from UDP-glucose as glucose monomers are linked into the growing glycogen strand by GYS2. The coupled assay then proceeds with pyruvate kinase utilizing UDP and phospho(enol)pyruvate (PEP) to form pyruvate. Lactate dehydrogenase then converts pyruvate and NADH into lactate and NAD+. Oxidation of NADH to NAD+ can be measured continuously with a plate reader by quantifying the decrease in NADH absorbance at 340 nm over time.
Compounds that inhibit the hGYS2 enzyme and, subsequently, the downstream conversion of NADH to NAD+, were tested using assay ready plates (black, clear bottom 384 well plates) in a final DMSO reaction volume of 2.5% DMSO. The Assay Buffer contained 50 mM Tris pH 7.5, 2 mM MgCl2, and 100 mM KCl. Fresh stocks of BSA at a final concentration of 0.02% and TCEP 1 mM were added before splitting buffer into hGYS2 buffer and substrate buffer. To the hGYS2 buffer, rabbit liver glycogen was added at a final concentration of 0.2% glycogen. Glucose-6-Phosphate was added at 2 mM, recombinant hGYS2/GN1 protein was added at 200 nM to the substrate buffer, phosphoenolpyruvate (PEP) was added at 2 mM, UDP-Glucose was added at 2 mM, NADH was added at 0.6 mM, and Pyruvate Kinase/Lactate Dehydrogenase was added at 20 units/mL. The reaction was initiated by mixing hGYS2 buffer and substrate buffer at a 1:1 ratio. Both buffers were plated using a liquid dispensing device with hGYS2 buffer plated first followed by the substrate buffer. Plates were spun briefly to eliminate air bubbles and are immediately read in continuous mode at an absorbance of 340 nm, for 10 time points in one-minute increments, for a total of 10 minutes. The slope from these 10 time points was normalized to the positive and negative control wells. The duplicate % inhibition values are then averaged and fit to a Hill equation for dose response according to the Levenberg-Marquardt algorithm with the Hill equation maximum set to 100 and the minimum set to 0.
The results are shown in Table 4 below, which reports the IC50 of each compound. Unless otherwise specified, IC50 values are reported as the geometric mean of at least 2 assay runs on separate days. As shown in the table below, the compounds of the present invention are not potent inhibitors of human GYS2. Unless otherwise specified, IC50 values are reported as the geometric mean of at least two assay runs on separate days. Each run represents the average of a technical replicate, where each compound was assayed twice in the same plate. A superscript “#” symbol in Table 4 indicates results from a single assay run.

Chain of hGYS1 enzyme (recombinant hGYS1/GN1 protein) (P13807 whole entry): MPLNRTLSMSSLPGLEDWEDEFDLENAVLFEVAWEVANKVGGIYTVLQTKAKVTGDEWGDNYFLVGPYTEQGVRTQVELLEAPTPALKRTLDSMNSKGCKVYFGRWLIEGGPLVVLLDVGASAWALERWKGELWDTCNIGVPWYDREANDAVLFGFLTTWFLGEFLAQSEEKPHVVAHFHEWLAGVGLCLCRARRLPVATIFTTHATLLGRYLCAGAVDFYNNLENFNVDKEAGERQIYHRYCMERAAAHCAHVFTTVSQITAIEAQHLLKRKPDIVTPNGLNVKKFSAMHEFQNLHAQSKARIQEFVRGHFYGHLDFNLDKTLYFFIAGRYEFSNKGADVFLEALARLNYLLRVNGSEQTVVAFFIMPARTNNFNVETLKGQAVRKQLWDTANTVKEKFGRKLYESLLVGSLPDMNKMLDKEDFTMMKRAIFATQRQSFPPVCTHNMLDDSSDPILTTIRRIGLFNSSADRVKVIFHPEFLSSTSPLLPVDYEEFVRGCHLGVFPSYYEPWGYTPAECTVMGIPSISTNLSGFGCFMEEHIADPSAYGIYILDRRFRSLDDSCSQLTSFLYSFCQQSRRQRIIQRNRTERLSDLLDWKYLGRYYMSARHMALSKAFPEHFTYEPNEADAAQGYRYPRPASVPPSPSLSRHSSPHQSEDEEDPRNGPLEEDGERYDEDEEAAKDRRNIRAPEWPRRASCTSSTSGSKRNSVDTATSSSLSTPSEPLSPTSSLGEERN
Chain of hGYS1 enzyme (recombinant hGYS1/GN1 protein) (P46976 whole entry partner): as the sequence (P46976 whole entry partner) above

Row | Structure (SMILES) | IC50 [1] | IC50 [2]
1 | CC(C)c1ccc([C@@H](NC(=O)[C@@H]2C[C@@H](F)CN2C(=O)Cn2ccccc2=O)c2ccccc2)cc1 [Compound 51, (2S,4R)-4-fluoro-1-[2-(2-oxo-1,2-dihydropyridin-1-yl)acetyl]-N-[(S)-phenyl[4-(propan-2-yl)phenyl]methyl]pyrrolidine-2-carboxamide] | 19 nM | > 100000 nM
2 | CC(C)c1ccc([C@@H](NC(=O)[C@@H]2C[C@@H](F)CN2C(=O)Cc2ncccn2)c2ccccc2)cc1 [Compound 28, (2S,4R)-4-fluoro-N-[(S)-phenyl[4-(propan-2-yl)phenyl]methyl]-1-[2-(pyrimidin-2-yl)acetyl]pyrrolidine-2-carboxamide] | – | > 100000 nM
3 | CC(C)c1ccc(C(NC(=O)[C@@H]2C[C@@H](F)CN2C(=O)Cc2cnn[nH]2)c2ccncc2F)cc1F (single isomer, unassigned) [Compound 619, (2S,4R)-4-fluoro-N-[(R) or (S)-[3-fluoro-4-(propan-2-yl)phenyl](3-fluoropyridin-4-yl)methyl]-1-[2-(1H-1,2,3-triazol-5-yl)acetyl]pyrrolidine-2-carboxamide] | 1160 nM | –
4 | CC(C)c1ccc(C(NC(=O)[C@@H]2C[C@@H](F)CN2C(=O)Cc2cnn[nH]2)c2ccnc(N)c2)cc1F (single isomer, unassigned) [Compound 618, (2S,4R)-N-[(S) or (R)-(2-aminopyridin-4-yl)[3-fluoro-4-(propan-2-yl)phenyl]methyl]-4-fluoro-1-[2-(1H-1,2,3-triazol-5-yl)acetyl]pyrrolidine-2-carboxamide] | 1520 nM | –
5 | CC(=O)N1[C@@H](C)CC[C@H]1C(=O)N[C@@H](c1ccccc1)c1ccc(C2CC2)c(F)c1 [Compound 419, (2S,5S)-1-acetyl-N-[(S)-(4-cyclopropyl-3-fluorophenyl)(phenyl)methyl]-5-methylpyrrolidine-2-carboxamide] | 2190 nM | –
6 | NCc1nnc(CC(=O)N2C[C@H](F)C[C@H]2C(=O)N[C@@H](c2ccccc2)c2ccc(C3CC3)c(F)c2)o1 [Compound 489, (2S,4R)-1-{2-[5-(aminomethyl)-1,3,4-oxadiazol-2-yl]acetyl}-N-[(S)-(4-cyclopropyl-3-fluorophenyl)(phenyl)methyl]-4-fluoropyrrolidine-2-carboxamide] | 353 nM | –
7 | CC(C)c1ccc([C@@H](NC(=O)[C@@H]2CCC3(CC3)N2C(=O)Cc2cnn[nH]2)c2ccccc2)cc1F [Compound 341, (5S)-N-[(S)-[3-fluoro-4-(propan-2-yl)phenyl](phenyl)methyl]-4-[2-(1H-1,2,3-triazol-5-yl)acetyl]-4-azaspiro[2.4]heptane-5-carboxamide] | 780 nM | –
8 | CC(=O)N1[C@H](C)CC[C@H]1C(=O)N[C@@H](c1ccccc1)c1ccc(C(C)C)cc1 [Compound 215, (2S,5R)-1-acetyl-5-methyl-N-[(S)-phenyl[4-(propan-2-yl)phenyl]methyl]pyrrolidine-2-carboxamide] | 3770 nM | –
9 | COC1(CC(=O)N2C[C@H](F)C[C@H]2C(=O)N[C@@H](c2ccccc2)c2ccc(C(C)C)cc2)CN(C(C)=O)C1 [Compound 161, (2S,4R)-1-[2-(1-acetyl-3-methoxyazetidin-3-yl)acetyl]-4-fluoro-N-[(S)-phenyl[4-(propan-2-yl)phenyl]methyl]pyrrolidine-2-carboxamide] | 374 nM | –
10 | Cc1cc(CC(=O)N2C[C@H](F)C[C@H]2C(=O)N[C@@H](c2ccccc2)c2ccc(C(C)C)cc2)[nH]n1 [Compound 54, (2S,4R)-4-fluoro-1-[2-(3-methyl-1H-pyrazol-5-yl)acetyl]-N-[(S)-phenyl[4-(propan-2-yl)phenyl]methyl]pyrrolidine-2-carboxamide] | 47 nM | –
11 | CC(=O)N1CCC[C@H](C(=O)N2C[C@H](F)C[C@H]2C(=O)N[C@@H](c2ccccc2)c2ccc(C(C)C)cc2)C1 [Compound 153, (2S,4R)-1-[(3S)-1-acetylpiperidine-3-carbonyl]-4-fluoro-N-[(S)-phenyl[4-(propan-2-yl)phenyl]methyl]pyrrolidine-2-carboxamide] | 412 nM | –
12 | CC(C)c1ccc([C@@H](NC(=O)[C@@H]2C[C@@H](F)CN2C(=O)CCc2ncc[nH]2)c2ccccc2)cc1 [Compound 47, (2S,4R)-4-fluoro-1-[3-(1H-imidazol-2-yl)propanoyl]-N-[(S)-phenyl[4-(propan-2-yl)phenyl]methyl]pyrrolidine-2-carboxamide] | 138 nM | –
13 | CC(C)c1ccc([C@@H](NC(=O)[C@@H]2C[C@@H](F)CN2C(=O)C(=O)C2CC2)c2ccccc2)cc1 [Compound 113, (2S,4R)-1-(2-cyclopropyl-2-oxoacetyl)-4-fluoro-N-[(S)-phenyl[4-(propan-2-yl)phenyl]methyl]pyrrolidine-2-carboxamide] | 1040 nM | –
14 | CC(C)c1ccc([C@@H](NC(=O)[C@@H]2C[C@@H](F)CN2C(=O)Cn2nncc2N2CCC2)c2ccccc2)nc1 [Compound 715, (2S,4R)-1-{2-[5-(azetidin-1-yl)-1H-1,2,3-triazol-1-yl]acetyl}-4-fluoro-N-[(S)-phenyl[5-(propan-2-yl)pyridin-2-yl]methyl]pyrrolidine-2-carboxamide] | 105 nM | –
15 | CC(=O)N1CCCC(C)(C(=O)N2C[C@H](F)C[C@H]2C(=O)N[C@@H](c2ccccc2)c2ccc(C(C)C)cc2)C1 (stereo partly drawn) [Compound 168, (2S,4R)-1-(1-acetyl-3-methylpiperidine-3-carbonyl)-4-fluoro-N-[(S)-phenyl[4-(propan-2-yl)phenyl]methyl]pyrrolidine-2-carboxamide] | 439 nM | –
16 | CC(C)c1ccc([C@@H](NC(=O)[C@@H]2C[C@@H](F)CN2C(=O)c2cc(-c3ccncc3)[nH]n2)c2ccccc2)cc1 [Compound 78, (2S,4R)-4-fluoro-N-[(S)-phenyl[4-(propan-2-yl)phenyl]methyl]-1-[5-(pyridin-4-yl)-1H-pyrazole-3-carbonyl]pyrrolidine-2-carboxamide] | 953 nM | –
17 | O=C(N[C@@H](c1ccccc1)c1ccc(C2CC2)c(F)c1)[C@@H]1C[C@@H](F)CN1C(=O)Cc1ccon1 [Compound 438, (2S,4R)-N-[(S)-(4-cyclopropyl-3-fluorophenyl)(phenyl)methyl]-4-fluoro-1-[2-(1,2-oxazol-3-yl)acetyl]pyrrolidine-2-carboxamide] | 303 nM | –
18 | CC(C)c1ccc([C@@H](NC(=O)[C@@H]2C[C@@H](F)CN2C(=O)C(C)(C)O)c2ccccc2)cc1F [Compound 327, (2S,4R)-4-fluoro-N-[(S)-[3-fluoro-4-(propan-2-yl)phenyl](phenyl)methyl]-1-(2-hydroxy-2-methylpropanoyl)pyrrolidine-2-carboxamide] | 121 nM | –
19 | CC(=O)N1C[C@H](F)C[C@H]1C(=O)NC(c1cccc(-n2cccn2)c1)c1ccc(C(C)C)c(F)n1 (single isomer, unassigned) [Compound 699, (2S,4R)-1-acetyl-4-fluoro-N-[(S) or (R)-[6-fluoro-5-(propan-2-yl)pyridin-2-yl][3-(1H-pyrazol-1-yl)phenyl]methyl] pyrrolidine-2-carboxamide] | 51 nM | –
20 | CC(C)c1ccc([C@@H](NC(=O)[C@@H]2CCCN2C(=O)CO)c2ccccc2)cc1 [Compound 211, (2S)-1-(2-hydroxyacetyl)-N-[(S)-phenyl[4-(propan-2-yl)phenyl]methyl]pyrrolidine-2-carboxamide] | 469 nM | –
21 | O=C(NC(c1ccccc1)c1ccc(C2CCC2)c(F)c1)[C@@H]1C[C@@H](F)CN1C(=O)Cc1cnn[nH]1 (single isomer, unassigned) [Compound 673, (2S,4R)-N-[(R) or (S)-(4-cyclobutyl-3-fluorophenyl)(phenyl)methyl]-4-fluoro-1-[2-(1H-1,2,3-triazol-5-yl)acetyl]pyrrolidine-2-carboxamide] | 1740 nM | –
22 | CC(=O)N1C[C@]2(C(=O)N3C[C@H](F)C[C@H]3C(=O)N[C@@H](c3ccccc3)c3ccc(C(C)C)cc3)CC1CO2 [Compound 150, (2S,4R)-1-[(1S)-5-acetyl-2-oxa-5-azabicyclo[2.2.1]heptane-1-carbonyl]-4-fluoro-N-[(S)-phenyl[4-(propan-2-yl)phenyl]methyl]pyrrolidine-2-carboxamide] | 554 nM | –
